In brackets after ≈: the same amount, converted by molar mass.

Our source for the IC50, inhibition and growth inhibition percentage values is patent publication US12257239B1, “Cytotoxic treatment of cancer cells” (IMAM MOHAMMAD IBN SAUD ISLAMIC UNIVERSITY, priority 2024, dated 2025).

In one series the test system is cervical cancer (HeLa). Nature of the series: Growth inhibition of cancerous cells, HeLa. The note with it: Homo sapiens. It is filed as cell-based. The protocol:
(§1) The compound of Formula I was tested for its antitumor activity against various cancer cell lines, in vitro, in non-small cell lung cancer (A549), colorectal carcinoma (HCT116), prostate cancer (PC3), pharynx squamous carcinoma (FaDu), triple-negative breast cancer (MDA-MB-468), cervical cancer (HeLa), and human oral epithelial normal cell line (OEC).

Series [1] relates to colorectal carcinoma (HCT116). As to the kind of experiment: Growth inhibition of cancerous cells, HCT116. It is filed as cell-based. The settings on record: Homo sapiens, HCT-116; HCT116, 100 μg/mL; read-out: growth inhibition percentage. The protocol:
as §1

Series [2] concerns pharynx squamous carcinoma (FaDu). Nature of the series: Growth inhibition of cancerous cells, FaDu. The settings on record: Homo sapiens. In kind it is cell-based. The protocol:
as §1

In series [3] the test system is triple-negative breast cancer (MDA-MB-468). Nature of the series: Growth inhibition of cancerous cells, MDA-MB-468. It is filed as cell-based. The settings on record: Homo sapiens; for IC50: MDA-MB-468. The procedure:
as §1

Series [4] has as its system human oral epithelial normal cell line (OEC). The settings on record: 100 μg/mL. The protocol:
as §1

Series [5] concerns human non-small cell lung cancer (A549). Nature of the series: Growth inhibition of cancerous cells, A549. It is filed as cell-based. The note with it: for IC50: A549. The procedure:
as §1

Another series has as its system prostate cancer (PC3). As to the kind of experiment: Growth inhibition of cancerous cells, PC3. The settings on record: Homo sapiens; PC3, 100 μg/mL; read-out: growth inhibition percentage. It is filed as cell-based. The protocol: as §1
Where [6] appears, read: 100 μg/mL, read-out: growth inhibition percentage.

Regarding `O=C1S/C(=C\c2cc([N+](=O)[O-])ccc2O)C(=O)N1CCN1C(=O)c2ccccc2C1=O` [Formula I, 3-(2-(1,3-dioxoisoindolin-2-yl)ethyl)-5-(2-hydroxy-5-nitrobenzylidene)thiazolidine-2,4-dione], the IC50 (in general, the midpoint of a concentration-inhibition curve) was determined as 5.03 µg/mL with cervical cancer (HeLa), 5.03 µg/mL in series [2], 5.5 µg/mL in series [3] and 6 µg/mL in series [5]. In addition, the inhibition – broadly, the drop in the measured response relative to a control, in per cent – at 100 µg/mL amounted to 70.8% with cervical cancer (HeLa) (setting [6]); 85.7% in series [1]; 89.1% in series [2] (setting [6]); 90.8% in series [3] (MDA-MB-468, 100 μg/mL, read-out: growth inhibition percentage); 78% in series [5] (A549, 100 μg/mL, read-out: growth inhibition percentage); 83.8% in the series on prostate cancer (PC3). For the same compound, the growth inhibition percentage in series [4] was 48.89%.
As for `COc1cccc2c1C(=O)c1c(O)c3c(c(O)c1C2=O)C[C@@](O)(C(=O)CO)C[C@@H]3O[C@H]1C[C@H](N)[C@H](O)[C@H](C)O1` [doxorubicin, reference compound], the IC50 in the series on cervical cancer (HeLa) was found to be 4.83 µg/mL (≈ 8.89 µM); in series [2], 13.2 µg/mL (≈ 24.2 µM); in series [3], 7.76 µg/mL (≈ 14.3 µM); in series [5], 7.63 µg/mL (≈ 14 µM).
